Several values for one entry are separate records, joined by “and”; a condition that tells them apart may be missing. Equal values may be shown once. Read-outs that look alike come from different tables or passages of the source.
How the values were obtained:
[1] = system: FtsA self-interaction; assay: FRET (acceptor photobleaching) self-interaction of FtsA on supported lipid bilayers; format: binding, E. coli
Excerpt: To directly measure FtsA self-interaction in our fluorescence microscopy experiments, we established a FRET (Förster resonance energy transfer)-based assay using FtsA labelled with either Cy5 (acceptor) or Cy3 (donor). […] We then decided to use this approach to measure the degree of FtsA self-interaction on supported lipid membranes by quantifying the increase in donor fluorescence after photobleaching the acceptor fluorophore[30]–[32] (Fig. 3c–e and Fig. S3d). […] As a negative control, we also attached the Hexahistidine-SUMO-tag (His-SUMO) labelled with Cy5 and Cy3 to membranes with an increasing density of Tris-NTA lipids.
Equimolar concentrations of Cy3- and Cy5-labelled FtsA, supplemented with 20% unlabelled FtsA were used to study FRET and FRAP. Five pre-bleach frames were acquired, followed by acceptor photobleaching of a rectangular ROI with 40% 641 nm laser power and a dwell size of 1 µs/pixel, 75% overlapping lines. The recovery of the signal or the increase in donor intensity were measured with either two frames or one frame per second.
Bleaching the acceptor dye leads to an increase in the donor intensity, which can be used to quantify the Foerster Resonance energy transfer (FRET)[48]. FRET efficiency was quantified with E%=Ipost/Ipost+Ipre⋅100 , where Ipost is the intensity of the […] and Ipre is the […]. […] To extract the contribution of both processes, we adjusted a routine recently published by Gerganova et al.[33]. In short, the code provides the contribution of both modes of recovery by analysing the shape of the fluorescence recovery profile. […] Contribution of diffusion leads to a change of the slope of the outer borders of the bleached region (S4h right). Thus, by measuring the change of the slope of the border recovery, diffusion and simple on/off binding can be distinguished. We developed “FRAPdiff”, a graphical user interface, which uses the original fit routine by David Rutkowski. It can be used directly on.tiff movies with annotated bleach regions as ImageJ ROIs. In addition, we added optional bleach correction, user selectable projection axis (x or y), and optional mirroring of the recovery profiles, if bleaching was not symmetric. The original fit routine for estimating the recovery and diffusion dynamics can be found at https://github.com/davidmrutkowski/1DReflectingDiffusion. FRAPdiff is available at 10.5281/zenodo.6400639[49] under the GPLv3 open-source license.

[2] = Fig. S4b, 0.10 % Tris NTA
Procedure: To study colocalization of His-tagged variants of FtsA, 0.5–1 µM of Cy5 labelled His-tagged FtsAs were added to the chamber, incubated for 20 min and washed 6x with reaction buffer. […] To control the density of membrane-bound FtsA, SUVs without and with Tris-NTA lipids were mixed to obtain the respective Tris-NTA concentrations. To perform FRET/FRAP experiments, equimolar concentrations of Cy3 and Cy5 labelled His-tagged FtsAs (total 0.5–1 µM) or His-SUMO-Cys were added to a chamber and treated as above. […] FRAP experiments were performed as described before.
To calculate the theoretical spacing of His-tagged FtsAs or the His-SUMO control, we consulted a previous QCM-D study using Tris-NTA lipids and a His-tagged version of ZipA[50]. The spacing in nm^2 was calculated by y=2/3⋅1/6.022⋅x⋅0.001 , where x is the protein density in pMol cm^−2 which can be estimated from the Tris-NTA lipid density.
To estimate the theoretical maximum packing of membranes containing Tris-NTA lipids, we can assume the area of a single FtsA molecule to be ~30 nm^2 and the area of a single lipid molecule to be 0.5 nm^2. […] For the FRET control experiments with His-SUMO-Cys, we estimate a four times smaller area for His6-SUMO Cys (~7 nm^2) and thus increase the maximum Tris-NTA density to 5%.

For “FtsA WT: wild-type E. coli actin-homologue FtsA, membrane anchor of FtsZ”, the “FRET efficiency, mean” value ([1]; 0.1 µM FtsA + FtsN&Z) was 15.28%, the “FRET efficiency, mean” value ([1]; 0.1 µM FtsA + FtsN) was 8.5880% and 8.59% and the “FRET efficiency, mean” value ([1]; 0.1 µM FtsA + FtsZ) was 7.8480% and 7.85%. The “FRET efficiency, mean” value ([1]; 0.1 µM FtsA alone) was 8.1133%, the “FRET efficiency, mean” value ([1]; 0.2 µM FtsA + FtsN&Z) was 17.79% and the “FRET efficiency, mean” value ([1]; 0.2 µM FtsA + FtsN) was 12.6840% and 12.68%. The “FRET efficiency, mean” value ([1]; 0.2 µM FtsA + FtsZ) was 12.5828% and 12.58%, the “FRET efficiency, mean” value ([1]; 0.2 µM FtsA alone) was 16.69% and the “FRET efficiency, mean” value ([1]; 0.4 µM FtsA + FtsN&Z) was 30.1680% and 30.17%. The “FRET efficiency, mean” value ([1]; 0.4 µM FtsA + FtsN) was 27.2922% and 27.29%, the “FRET efficiency, mean” value ([1]; 0.4 µM FtsA + FtsZ) was 17.7412% and 17.74% and the “FRET efficiency, mean” value ([1]; 0.4 µM FtsA alone) was 22.27%. For the same substance, the FRET efficiency ([1]; 0.4 µM FtsA with FtsNcyto and FtsZ, p-value 0.64) was 30.2 ± 9.6%, the FRET efficiency ([1]; 0.4 µM FtsA, p-value 6.12 × 10^−9) was 22.1 ± 5.7% and the “FRET efficiency, mean” value ([1]; 0.8 µM FtsA + FtsN&Z) was 34.2167% and 34.22%. The “FRET efficiency, mean” value ([1]; 0.8 µM FtsA + FtsN) was 29.89%, the “FRET efficiency, mean” value ([1]; 0.8 µM FtsA + FtsZ) was 27.1326% and 27.13% and the “FRET efficiency, mean” value ([1]; 0.8 µM FtsA alone) was 31.17%. The FRET efficiency ([1]; Fig. S3f, 0.2µM FtsA + N/Z, replicate 1) was 17.94%, the FRET efficiency ([1]; Fig. S3f, 0.2µM FtsA + N/Z, replicate 2) was 16.55% and the FRET efficiency ([1]; Fig. S3f, 0.2µM FtsA + N/Z, replicate 3) was 18.88%. For the same substance, the FRET efficiency ([1]; Fig. S3f, 0.2µM FtsA + N, replicate 1) was 7.76%, the FRET efficiency ([1]; Fig. S3f, 0.2µM FtsA + N, replicate 2) was 9.38% and the FRET efficiency ([1]; Fig. S3f, 0.2µM FtsA + N, replicate 3) was 9.72%. It also gave an FRET efficiency ([1]; Fig. S3f, 0.2µM FtsA + Z, replicate 1) of 9.62%, an FRET efficiency ([1]; Fig. S3f, 0.2µM FtsA + Z, replicate 2) of 10.06% and an FRET efficiency ([1]; Fig. S3f, 0.2µM FtsA + Z, replicate 3) of 7.69%. For the same substance, the FRET efficiency ([1]; Fig. S3f, 0.2µM FtsA, replicate 1) was 12.55%, the FRET efficiency ([1]; Fig. S3f, 0.2µM FtsA, replicate 2) was 13.62% and the FRET efficiency ([1]; Fig. S3f, 0.2µM FtsA, replicate 3) was 23.13%. For the same substance, the FRET efficiency ([1]; Fig. S3f, 0.4µM FtsA + N/Z, replicate 1) was 16.64%, the FRET efficiency ([1]; Fig. S3f, 0.4µM FtsA + N/Z, replicate 2) was 39.69% and the FRET efficiency ([1]; Fig. S3f, 0.4µM FtsA + N/Z, replicate 3) was 38.87%. For the same substance, the FRET efficiency ([1]; Fig. S3f, 0.4µM FtsA + N, replicate 1) was 18.29%, the FRET efficiency ([1]; Fig. S3f, 0.4µM FtsA + N, replicate 2) was 25.77% and the FRET efficiency ([1]; Fig. S3f, 0.4µM FtsA + N, replicate 3) was 38.25%. It also gave an FRET efficiency ([1]; Fig. S3f, 0.4µM FtsA + Z, replicate 1) of 14.31%, an FRET efficiency ([1]; Fig. S3f, 0.4µM FtsA + Z, replicate 2) of 10.18% and an FRET efficiency ([1]; Fig. S3f, 0.4µM FtsA + Z, replicate 3) of 12.8%. For the same substance, the FRET efficiency ([1]; Fig. S3f, 0.4µM FtsA, replicate 1) was 20.04%, the FRET efficiency ([1]; Fig. S3f, 0.4µM FtsA, replicate 2) was 14.17% and the FRET efficiency ([1]; Fig. S3f, 0.4µM FtsA, replicate 3) was 22.75%. The FRET efficiency ([1]; Fig. S3n, AMP PNP, 0.10 µM FtsA, replicate 1) was 2.62%, the FRET efficiency ([1]; Fig. S3n, AMP PNP, 0.10 µM FtsA, replicate 2) was -0.01% and the FRET efficiency ([1]; Fig. S3n, AMP PNP, 0.20 µM FtsA, replicate 1) was 5.42%. It also gave an FRET efficiency ([1]; Fig. S3n, AMP PNP, 0.20 µM FtsA, replicate 2) of 10.85%, an FRET efficiency ([1]; Fig. S3n, AMPPNP, 0.10 µM FtsA, summary value) of 1.30% and an FRET efficiency ([1]; Fig. S3n, AMPPNP, 0.20 µM FtsA, summary value) of 8.14%. It also gave an FRET efficiency ([1]; Fig. S3n, AMPPNP, 0.40 µM FtsA, summary value) of 9.64%, an FRET efficiency ([1]; Fig. S3n, AMPPNP, 0.80 µM FtsA, summary value) of 10.07% and an FRET efficiency ([1]; Fig. S3n, ATP, 0.10 µM FtsA, summary value) of 8.36%. It also gave an FRET efficiency ([1]; Fig. S3n, ATP, 0.20 µM FtsA, summary value) of 16.69%, an FRET efficiency ([1]; Fig. S3n, ATP, 0.40 µM FtsA, summary value) of 22.27% and an FRET efficiency ([1]; Fig. S3n, ATP, 0.80 µM FtsA, summary value) of 31.17%. It also gave an FRET efficiency ([1]; Fig. S3n, ATPgS, 0.10 µM FtsA, summary value) of 4.97%, an FRET efficiency ([1]; Fig. S3n, ATPgS, 0.20 µM FtsA, summary value) of 9.83% and an FRET efficiency ([1]; Fig. S3n, ATPgS, 0.40 µM FtsA, summary value) of 14.66%. The FRET efficiency ([1]; Fig. S3n, ATPgS, 0.80 µM FtsA, summary value) was 21.79% and the “effect of FtsNcyto on FRET” value ([1]; presence of FtsNcyto) was “small FRET increase”.
In the case of “FtsA-His6: FtsA WT (1-405) with amphipathic helix replaced by C-terminal His-tag”, the “FtsA His6 intensity on Tris NTA SLBs” value ([2]; replicate 1) is reported as 1571.82 a.u, the “FtsA His6 intensity on Tris NTA SLBs” value ([2]; replicate 2) is reported as 1134.07 a.u and the “FtsA His6 intensity on Tris NTA SLBs” value ([2]; replicate 3) is reported as 932.94 a.u.
